These are literature values, as cited in patent publication US20240382500A1, “DOPAMINE RECEPTOR AGONISTS OR ANGIOTENSIN RECEPTOR BLOCKERS OR COMBINATIONS THEREOF FOR COVID-19 SEQUELAE” (priority 2023, published 2024).

Series [1] concerns microglia.
Series [2] concerns ICAM-1.
Series [3] concerns HMGB1.
The conditions of series [4]: in vivo.
The conditions of series [5]: dosages up to 15 mg/day, subjects with early-stage Parkinson's disease.
For series [6] the following is noted: 250 mg/day, characterized as a low dose.
Series [7] relates to natural killer cells (NKCs).

For the compound `CCOc1nc2cccc(C(=O)O)c2n1Cc1ccc(-c2ccccc2-c2nn[nH]n2)cc1` [Candesartan], the microglial phagocytosis entry in series [1] is recorded as “strengthens”. Moreover, the “action of ANG II on ICAM-1” value in series [2] is given as “inhibit”. In addition, the HMGB1 entry in series [3] is given as “lower”.

Regarding `Cc1cc(Oc2ncccc2C(F)(F)F)ccc1-c1c(C)c(=O)[nH]c(=O)n1C` [PF-06649751], in series [4], the “safety and tolerability in human subjects” value is “safe and well tolerated”. Further, in series [5], the motor symptoms entry is “significant improvement”.

`Oc1cc2c(cc1O)C(c1ccccc1)CNCC2` (centres unmarked) [SKF38393]: the “tolerability in preclinical studies” value was “well tolerated”. Also, the “clinical benefit in schizophrenia” value in series [6] was “failed to show a clinical benefit”. For the same compound, the NKC cytotoxicity entry in series [7] is “augments”.
